Measurements as given in US7858578B2, “Methods of inducing neuronal growth by a Fucose-α(1-2) galactose (fuc-α(1-2) gal) moiety and a lectin” (California Institute of Technology, priority 2004, dated 2010).
Entries after “also recorded” stand apart in the source; their conditions may differ.

Legend:
[1] = system: synapsin I expressed in HeLa cells; assay: Synapsin fucosylation and expression in synapsin I-transfected HeLa cells (immunoblotting); format: cell-based; conditions: deoxy sugar for 24 h
Method: (§1) FIG. 19. Inhibition of synapsin fucosylation using 2-dGal decreases the expression and half-life of synapsin I. (A) Effects of 2-dGal and 6-dGal on synapsin fucosylation (left panel) and synapsin expression (right panel) levels. Synapsin I-transfected HeLa cells were treated with the indicated amounts of the deoxy sugar for 24 h. Fucosylation and synapsin expression levels were measured by immunoblotting with antibody A46-B/B10 and an anti-synapsin antibody, respectively. […] Synapsin I-transfected HeLa cells were treated with 2-dGal or a vehicle control (PBS), pulse labeled with ^35S-L-cysteine and ^35S-L-methionine as described in Materials and Methods, and chased for the indicated times. ^35S-labeled synapsin levels were measured by autoradiography. (C) Inhibition of the calcium-activated protease calpain using a calpain inhibitor peptide or calpeptin protects synapsin from degradation. […] Synapsin I-transfected HeLa cells were treated with the indicated inhibitors or vehicle control (DMSO, PBS or MeOH) in the presence or absence of 2-dGal for 15 h. Following lysis, the cell extracts were analyzed for synapsin expression levels by immunoblotting.
The effects of 2-dGal on synapsin I expressed in HeLa cells were next investigated. Cell lysates containing equivalent amounts of transfected protein were resolved by SDS-PAGE, and the fucosylation and protein levels of synapsin were measured by immunoblotting, using methods described above.

[2] = animals; cited from earlier work
[3] = system: Fucα(1-2)Gal epitope on glycoproteins; assay: Western blot of neuronal lysates with anti-Fucα(1-2)Gal antibody A46-B/B10; format: cell-based, rat; conditions: 30 mM, 4 days
Method: In addition to cells plated on coverslips, hippocampal neurons were grown in 30 mm dishes and treated with or without 30 mM 2-dGal (25 μL in PBS with 475 μL supplemented Neurobasal medium). After 4 days, cells were harvested with 2.5% trypsin, lysed with 1% boiling SDS with protease inhibitors, and cell lysates probed by Western blotting using the anti-Fucα(1-2)Gal antibody A46-B/B10 (Karsten, U., et al., G. Br. J. Cancer, 58:176-181 (1988)). Protein concentrations of the neuronal lysates were determined using the BCA Protein Assay (Pierce). Equal amounts of total protein were resolved by 10% SDS-PAGE, and proteins were transferred to PVDF membrane (Millipore) in 20 mM Tris-Cl pH 8.6/120 mM glycine/20% methanol. Western blots were blocked for 1 h with 3% periodated BSA (Glass, W. F., et al., Anal. Biochem., 115:219-224 (1981)) and rinsed with TBST (50 mM Tris-Cl pH 7.4/150 mM NaCl/0.1% Tween-20). Blots were incubated with anti-Fucα(1-2)Gal antibody A46-B/B10 (0.5 μg/mL; gift from Dr. U. Karsten, Max-Delbruck Centre for Molecular Medicine, Berlin-Buch, Germany) in TBST overnight at 4° C. with constant rocking, then rinsed and washed twice for 10 min with TBST. Immunoreactivity was visualized by incubation with a horseradish peroxidase conjugated goat anti-mouse antibody (1:2500; Pierce) in TBST for 1 h followed by a rinse and four washes of 20 min with TBST. […]

hippocampal slices = conditions: cited from earlier work
[4] = system: neurons from synapsin I-deficient or wild-type mice; assay: 2-dGal-mediated neurite retraction in neurons from synapsin I-deficient or wild-type mice; format: cell-based; conditions: cultured 2 days, 2-dGal for 3 days; n=50; p<0.003
Method: (§2) FIG. 20. […] (A) E18 cortical neurons cultured for 7 DIV were treated with 15 mM of 2-dGal or 6-dGal for 3 days. Protein lysates were analyzed by Western blotting using antibodies selective for the indicated proteins. A significant reduction in the expression of synapsin Ib was observed, while other synapse-associated proteins were unaffected by the 2-dGal treatment. (B) Neurite retraction caused by 2-dGal is reduced in synapsin-deficient mice. Neurons from synapsin I-deficient or wild-type mice were cultured for 2 days, treated with 2-dGal for 3 days, and analyzed for mean neurite length.
Although synapsin I represents the major fucosylated protein in mature neuronal cultures, other proteins are also covalently modified by Fucα(1-2)Gal during early developmental stages (See FIG. 9A). The relative contribution of synapsin to the striking effects of 2-dGal on neuronal morphology were therefore investigated. Neurons were cultured from synapsin I-deficient (Chin, L. S., et al., Proc. Natl. Acad. Sci. USA 92:9230-9234 (1995); Drs. H. T Kao and P. Greengard, The Rockefeller University, New York, N.Y.) or wild-type mice for 2 days, treated with 2-dGal for 3 days, immunostained for tubulin, and examined by confocal fluorescence microscopy. […]

hippocampal neurons = assay: Effects of deoxy-galactose sugars on neuronal morphology (anti-tau immunostaining); format: cell-based, rat
Method: Hippocampal neurons were plated on poly-DL-ornithine-coated glass coverslips as described above. After one day in culture, the medium was replaced with fresh medium, and the small molecules (2-dGal, 3-Deoxy-D-Galactose (3-dGal), or D-Galactose (Gal)) were added. A dose-response experiment was initially performed to determine the minimum concentration of 2-dGal needed to elicit an effect. Neurons were treated with varying concentrations of 2-dGal (1, 5, 10, 15, or 30 mM in 25 μL PBS with 475 μL of supplemented Neurobasal medium) for 2 days before immunostaining with anti-tau antibodies as described above.
Cells were treated as above under 4 different conditions: (1) no treatment for 2 days, (2) incubation with 15 mM 2-dGal for 2 days, (3) incubation with 15 mM 2-dGal for 2 days followed by incubation with 75 mM Gal for 2 days, or (4) incubation with 15 mM 3-dGal for 2 days. After adding the small molecules, cultures were incubated at 37° C., 5% CO2, then washed once with PBS, and immunostained with anti-tau antibody as described above.

E18 cortical neurons = assay: Expression of synaptic proteins in cultured neurons (Western blotting); format: cell-based; conditions: 15 mM for 3 days, neurons 7 DIV
Method: as §2
To examine the effects of 2-dGal on synapsin fucosylation in neurons, neurons were cultured for 7 DIV to allow for adequate expression of synapsin and subsequently treated with 2-dGal or 6-dGal for comparison. Cells were lysed and immunoblotted as described above. […] The expression of other synaptic proteins, including NSF, the synaptic vesicle protein synaptotagmin, the presynaptic plasma membrane protein syntaxin, and the postsynaptic proteins PSD-95, the AMPA receptor GluR1 subunit and spinophilin, was unchanged by the 2-dGal treatment.

[5] = system: synapsin I-transfected HeLa cells; assay: Synapsin degradation with inhibitors of protein degradation with or without 2-dGal; format: cell-based; conditions: 2-dGal alone, 15 h
Method: as §1
To investigate the molecular mechanisms responsible for synapsin degradation, cells expressing synapsin were treated with various inhibitors of protein degradation in the presence or absence of 2-dGal. Specifically, the lysosomal inhibitors bafilomycin A1 and ammonium chloride, the proteasome inhibitor MG132, and two inhibitors of the calcium-dependent protease calpain, were used.

O=CC[C@@H](O)[C@@H](O)[C@H](O)CO [Compound 2-dGal, 2-Deoxy-D-Galactose]
fucosylation level of synapsin [1]: dramatic effect on the fucosylation level of synapsin | level of synapsin protein [1]: significant decrease in the level of synapsin protein | effect on memory [2]: reversible amnesia | level of Fucα(1-2)Gal epitope on glycoproteins [3]: disrupted synthesis of the Fucα(1-2)Gal epitope on glycoproteins; also recorded: significantly reduced levels of the Fucα(1-2)Gal epitope; also recorded: diminishes expression of the Fucα(1-2)Gal epitope | effect on LTP (hippocampal slices): interferes with the maintenance of long-term potentiation | increase of mean neurite length, synapsin knockout compared to wild-type neurons [4]: 17.4±5.2% | effect on neurite outgrowth (hippocampal neurons; 15 mM for 2 days): strong effect on neurite outgrowth; also recorded: severely stunted neurites and failed to form synapses; also recorded: inhibits neuronal growth | neurites with increasing concentration (hippocampal neurons; 1, 5, 10, 15 or 30 mM for 2 days): gradual decrease in neurites | cellular toxicity (trypan blue staining, adherence, morphology) (hippocampal neurons; concentrations up to 30 mM): No cellular toxicity | expression of other synaptic proteins (NSF, synaptotagmin, syntaxin, PSD-95, GluR1, spinophilin) (E18 cortical neurons): unchanged | expression of synapsin I (E18 cortical neurons): dramatically reduced the expression of synapsin I; also recorded: reduces synapsin I expression levels | levels of synapsin expression [5]: significantly reduced the levels of synapsin expression
